# Values quoted from earlier work, collected in paper PMC4008261, “Rewiring of regenerated axons by combining treadmill training with semaphorin3A inhibition” (Molecular Brain, 2014).
# Tests used:
# SCT adult rats = test system: SCT adult rats; design: method as in PMID 17099709; settings: adult rats after total spinal cord transection (SCT), osmotic mini-pump; cited from earlier work
# semaphorin3A = test system: semaphorin3A; design: method as in PMID 17099709; settings: in vitro and in vivo; cited from earlier work
smiles,measurement,setting,value
"CC(=O)c1c(C)c(/C(O)=C2\COc3cc(O)c(O)c(C(=O)O)c3C2=O)cc2c(=O)c3c(C(=O)O)c(O)c(O)cc3oc12 [SM-216289, xanthofulvin]",axonal regeneration and motor function recovery,SCT adult rats,led to axonal regeneration and motor function recovery
same,inhibition of semaphorin3A signaling,semaphorin3A,selectively inhibits semaphorin3A signaling both in vitro and in vivo
